{
  "source": "patent US20050085463A1",
  "about": "(priority 2003, published 2005)",
  "key": {"5-HT7A receptor": {"biological_target": "5-HT7A receptor (Homo sapiens, UniProt P34969)", "sequence (P34969 1-445 isoform P34969-2)": "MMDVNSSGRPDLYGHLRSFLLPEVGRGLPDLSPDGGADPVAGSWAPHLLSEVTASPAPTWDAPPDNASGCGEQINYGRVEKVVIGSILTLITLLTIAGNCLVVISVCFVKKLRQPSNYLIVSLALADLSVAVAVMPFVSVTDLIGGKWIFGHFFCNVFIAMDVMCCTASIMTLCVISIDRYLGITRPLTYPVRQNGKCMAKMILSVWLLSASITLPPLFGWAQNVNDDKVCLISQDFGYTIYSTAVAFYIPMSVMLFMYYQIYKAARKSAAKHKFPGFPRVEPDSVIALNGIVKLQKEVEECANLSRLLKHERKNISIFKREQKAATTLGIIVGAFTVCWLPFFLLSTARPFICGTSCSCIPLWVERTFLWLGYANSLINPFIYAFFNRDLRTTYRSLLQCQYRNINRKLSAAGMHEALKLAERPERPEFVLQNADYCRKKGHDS", "experiment": "R-SAT inverse agonist assay"}, "spontaneous activity": {"system": "spontaneous activity", "experiment": "Spontaneous locomotion", "format": "in vivo, Non-Swiss Albino (NSA) mice", "details": "10 mg/kg s.c.; maintained for 120 minutes"}, "D3 dopamine receptor": {"biological_target": "D3 dopamine receptor (Homo sapiens, UniProt P35462)", "sequence (P35462 whole entry)": "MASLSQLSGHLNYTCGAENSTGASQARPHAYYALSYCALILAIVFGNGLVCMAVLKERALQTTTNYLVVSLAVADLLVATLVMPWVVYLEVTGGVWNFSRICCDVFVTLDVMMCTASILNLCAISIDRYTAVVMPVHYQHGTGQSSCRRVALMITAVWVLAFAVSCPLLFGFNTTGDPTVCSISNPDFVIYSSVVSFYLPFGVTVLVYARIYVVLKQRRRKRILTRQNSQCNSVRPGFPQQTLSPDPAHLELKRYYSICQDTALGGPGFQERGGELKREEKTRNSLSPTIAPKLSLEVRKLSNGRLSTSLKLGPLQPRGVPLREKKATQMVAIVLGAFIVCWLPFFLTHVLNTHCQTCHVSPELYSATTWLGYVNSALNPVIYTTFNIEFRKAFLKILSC", "details": "R-SAT; nr = no significant antagonist or inverse agonist activity up to 1 μM; nr* = nr but significant agonist activity"}, "[1]": {"system": "MAPK in CA1 region of hippocampus (M1 receptor mediated)"}, "M1 muscarinic receptor": {"biological_target": "T1, M1 muscarinic receptor (Homo sapiens, UniProt P11229)", "T1 sequence (P11229 1-460)": "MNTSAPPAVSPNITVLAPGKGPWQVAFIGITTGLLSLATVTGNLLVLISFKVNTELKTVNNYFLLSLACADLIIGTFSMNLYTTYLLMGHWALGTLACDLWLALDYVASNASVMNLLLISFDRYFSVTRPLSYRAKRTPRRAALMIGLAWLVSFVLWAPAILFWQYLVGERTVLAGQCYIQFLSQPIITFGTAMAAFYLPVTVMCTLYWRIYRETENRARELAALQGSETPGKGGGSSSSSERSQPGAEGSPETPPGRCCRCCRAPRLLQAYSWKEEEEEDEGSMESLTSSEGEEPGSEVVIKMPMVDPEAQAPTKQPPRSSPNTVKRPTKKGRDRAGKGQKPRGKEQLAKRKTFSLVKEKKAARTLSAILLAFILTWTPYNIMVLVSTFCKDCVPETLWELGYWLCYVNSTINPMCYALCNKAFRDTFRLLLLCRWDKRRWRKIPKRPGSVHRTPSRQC", "experiment": "R-SAT agonist assay", "format": "cell-based", "parameters": "expressed in transfected cells; host or cells: NIH/3T3"}, "5-HT2C receptor": {"biological_target": "5-HT2C receptor (Homo sapiens, UniProt P28335)", "sequence (P28335 33-458)": "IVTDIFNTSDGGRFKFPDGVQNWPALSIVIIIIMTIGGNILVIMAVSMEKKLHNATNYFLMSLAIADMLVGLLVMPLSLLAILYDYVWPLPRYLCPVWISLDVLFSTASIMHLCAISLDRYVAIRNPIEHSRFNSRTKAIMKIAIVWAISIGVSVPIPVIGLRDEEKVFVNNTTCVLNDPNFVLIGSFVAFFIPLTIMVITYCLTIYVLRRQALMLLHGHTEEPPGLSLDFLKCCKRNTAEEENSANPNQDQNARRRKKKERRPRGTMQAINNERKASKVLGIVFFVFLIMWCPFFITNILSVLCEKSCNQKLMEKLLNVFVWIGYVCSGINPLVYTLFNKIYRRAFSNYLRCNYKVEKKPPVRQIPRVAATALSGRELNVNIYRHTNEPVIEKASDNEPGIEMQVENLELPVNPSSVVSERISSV", "experiment": "R-SAT competitive antagonist assay"}, "H1 histamine receptor": {"biological_target": "H1 histamine receptor (Homo sapiens, UniProt P35367)", "sequence (P35367 whole entry)": "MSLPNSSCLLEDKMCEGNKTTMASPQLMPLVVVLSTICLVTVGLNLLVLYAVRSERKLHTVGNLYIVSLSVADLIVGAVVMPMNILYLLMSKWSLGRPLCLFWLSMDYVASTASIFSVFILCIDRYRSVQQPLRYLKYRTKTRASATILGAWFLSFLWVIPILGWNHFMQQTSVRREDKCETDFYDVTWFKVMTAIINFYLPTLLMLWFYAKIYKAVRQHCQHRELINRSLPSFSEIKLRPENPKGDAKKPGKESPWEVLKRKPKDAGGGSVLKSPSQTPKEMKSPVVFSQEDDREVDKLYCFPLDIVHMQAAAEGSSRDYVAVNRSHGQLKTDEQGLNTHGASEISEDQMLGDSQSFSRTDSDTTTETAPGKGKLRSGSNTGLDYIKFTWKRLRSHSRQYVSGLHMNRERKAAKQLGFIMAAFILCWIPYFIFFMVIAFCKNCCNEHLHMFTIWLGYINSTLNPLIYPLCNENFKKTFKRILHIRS", "experiment": "R-SAT competitive antagonist assay"}, "[2]": {"details": "dog; oral clozapine (Mosier et al. 2003); cited from earlier work"}, "M2 muscarinic receptor [3]": {"biological_target": "T2, M2 muscarinic receptor (Homo sapiens, UniProt P08172)", "T2 sequence (P08172 1-466)": "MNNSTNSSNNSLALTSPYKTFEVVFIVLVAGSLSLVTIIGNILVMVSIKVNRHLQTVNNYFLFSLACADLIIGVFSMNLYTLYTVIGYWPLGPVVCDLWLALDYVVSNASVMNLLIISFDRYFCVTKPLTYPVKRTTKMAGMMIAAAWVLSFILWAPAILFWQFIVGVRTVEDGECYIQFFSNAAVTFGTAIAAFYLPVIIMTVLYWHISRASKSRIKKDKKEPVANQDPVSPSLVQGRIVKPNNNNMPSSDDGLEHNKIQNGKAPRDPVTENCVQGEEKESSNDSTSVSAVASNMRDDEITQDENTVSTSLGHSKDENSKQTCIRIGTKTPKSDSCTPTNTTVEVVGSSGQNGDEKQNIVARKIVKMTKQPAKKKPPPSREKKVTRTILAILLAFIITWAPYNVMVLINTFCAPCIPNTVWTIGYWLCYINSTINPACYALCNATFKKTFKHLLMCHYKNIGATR", "experiment": "R-SAT agonist assay"}, "M2 muscarinic receptor [4]": {"biological_target": "T2, M2 muscarinic receptor", "experiment": "R-SAT competitive antagonist assay", "format": "cell-based", "parameters": "expressed in transfected cells; host or cells: NIH/3T3", "details": "nr = no significant antagonist or inverse agonist activity up to 1 μM, nr* = nr but significant agonist activity"}, "5-HT1A receptor": {"biological_target": "T3, 5-HT1A receptor (Homo sapiens, UniProt P08908)", "T3 sequence (P08908 1-422)": "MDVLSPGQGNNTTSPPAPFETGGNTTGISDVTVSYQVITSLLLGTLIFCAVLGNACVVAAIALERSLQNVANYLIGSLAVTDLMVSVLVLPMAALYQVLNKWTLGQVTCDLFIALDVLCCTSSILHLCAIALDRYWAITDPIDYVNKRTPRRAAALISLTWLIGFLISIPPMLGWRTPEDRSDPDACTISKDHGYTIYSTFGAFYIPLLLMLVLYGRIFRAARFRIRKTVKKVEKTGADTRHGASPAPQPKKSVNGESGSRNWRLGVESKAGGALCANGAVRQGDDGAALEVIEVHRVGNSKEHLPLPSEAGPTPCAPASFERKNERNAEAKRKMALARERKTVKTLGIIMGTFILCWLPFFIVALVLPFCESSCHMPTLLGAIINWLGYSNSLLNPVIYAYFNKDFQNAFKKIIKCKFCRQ", "experiment": "Ligand binding screen at 10 μM"}, "5HT7 receptors": {"biological_target": "5HT7 receptors (Homo sapiens, UniProt P34969)", "sequence (P34969 whole entry)": "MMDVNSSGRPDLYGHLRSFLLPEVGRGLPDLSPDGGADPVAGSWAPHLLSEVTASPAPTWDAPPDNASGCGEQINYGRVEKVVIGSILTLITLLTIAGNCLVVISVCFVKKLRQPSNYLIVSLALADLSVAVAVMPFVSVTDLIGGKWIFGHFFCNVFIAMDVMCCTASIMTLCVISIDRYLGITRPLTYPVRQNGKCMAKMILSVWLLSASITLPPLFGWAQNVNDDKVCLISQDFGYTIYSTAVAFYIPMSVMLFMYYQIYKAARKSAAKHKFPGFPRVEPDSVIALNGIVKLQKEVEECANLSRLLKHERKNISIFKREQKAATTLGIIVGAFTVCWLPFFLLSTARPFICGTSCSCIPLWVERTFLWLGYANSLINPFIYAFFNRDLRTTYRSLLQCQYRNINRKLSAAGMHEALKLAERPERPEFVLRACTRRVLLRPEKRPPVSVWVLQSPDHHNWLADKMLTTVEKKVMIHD", "experiment": "Ligand binding screen at 10 μM"}, "H1 receptors": {"biological_target": "H1 receptors (Homo sapiens, UniProt P35367)", "sequence (P35367 whole entry)": "as the sequence (P35367 whole entry) above", "experiment": "Ligand binding screen at 10 μM"}, "[5]": {"details": "R-SAT, nr = no significant antagonist or inverse agonist activity up to 1 μM, nr* = nr but significant agonist activity"}},
  "note": "Values joined by “and” are separate entries in the source; they are usually repeats but may differ in a detail not shown here. Equal values may be shown once. “Also recorded” adds a separate entry of the source.",
  "data": [
    {"smiles": "Clc1ccc2c(c1)N=C(N1CCNCC1)c1ccccc1N2", "note": "[NDMC, 8-chloro-11-(1-piperazinyl)-5H-dibenzo [b,e][1,4] diazepine]", "values": [
      {"measurement": "EC50", "setting": "5-HT7A receptor", "value": 0.0501, "unit": "µM"},
      {"measurement": "pEC50 5HT7A, inverse agonist", "setting": "5-HT7A receptor; R-SAT, nr = no significant antagonist or inverse agonist activity up to 1 μM", "value": "7.3 ± 0.1"},
      {"measurement": "time of maximal reduction of spontaneous activity", "setting": "spontaneous activity", "value": 30, "unit": "min"},
      {"measurement": "pKi D3, competitive antagonist", "setting": "D3 dopamine receptor", "value": "nr and nr^"},
      {"measurement": "MAPK activation in CA1 region of hippocampus", "setting": "[1]; s.c. 3, 10, 30 and 100 mg/kg, killed two hours later, phospho-MAPK immunoreactivity", "value": "stimulation of MAPK activity at all doses in a dose-dependent manner; also recorded: Robust activation was observed, at a dose of 30 mg/kg"},
      {"measurement": "dose with statistically significant M1 receptor activation (phospho-MAPK)", "setting": "[1]; s.c., optical density of CA1 region, vs vehicle", "value": "≥ 30", "unit": "mg/kg"},
      {"measurement": "Ki", "setting": "M1 muscarinic receptor", "value": 0.05, "unit": "µM"},
      {"measurement": "EC50", "setting": "M1 muscarinic receptor; M1 pEC50, R-SAT agonist", "value": "0.055 µM and 0.0501 µM"},
      {"measurement": "Ki", "setting": "5-HT2C receptor", "value": 0.0158, "unit": "µM"},
      {"measurement": "pKi 5-HT2C, competitive antagonist", "setting": "5-HT2C receptor; [5]", "value": "7.8 ± 0.2"},
      {"measurement": "Ki", "setting": "H1 histamine receptor", "value": 0.00631, "unit": "µM"},
      {"measurement": "pKi H1, competitive antagonist", "setting": "H1 histamine receptor; [5]", "value": "8.2 ± 0.2"},
      {"measurement": "Cmax of desmethylclozapine as share of that of clozapine", "setting": "[2]", "value": "approximately 20%"},
      {"measurement": "EC50", "setting": "M2 muscarinic receptor [3]; M2 pEC50, R-SAT agonist", "value": "0.339 µM and 0.316 µM"},
      {"measurement": "M2 Efficacy", "setting": "M2 muscarinic receptor [3]; R-SAT, relative to carbachol, No response/nr = no agonist activity up to 10 μM", "value": "106 ± 19", "unit": "%"},
      {"measurement": "pKi M2, competitive antagonist", "setting": "M2 muscarinic receptor [4]", "value": "nr*"},
      {"measurement": "inhibition at 10 µM", "setting": "5-HT1A receptor", "value": "≥ 90", "unit": "%"},
      {"measurement": "inhibition at 10 µM", "setting": "5HT7 receptors", "value": "≥ 90", "unit": "%"},
      {"measurement": "inhibition at 10 µM", "setting": "H1 receptors", "value": "≥ 90", "unit": "%"}
    ]}
  ]
}
